Results taken from US20230117034A1, “PYRAZOLOTRIAZINES” (Bayer Aktiengesellschaft, priority 2019, published 2023).

What was measured:
[1] = molecular target: CDK12/CycK (Homo sapiens, UniProt Q9NYV4); test: CDK12/CycK high ATP kinase assay (TR-FRET, 2 mM ATP); assay type: biochemical; details: 2 mM ATP (high ATP); median; read-out: CDK12/CyclinK, 2 mM ATP (high ATP), IC50-[mol/l] (median)
Method in brief: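 His-tagged human CDK12/CycK (~0.75 nM) pre-incubated 15 min with compound, then 60 min at 22 °C with 2 mM ATP and 1 µM biotinylated peptide (HEPES pH 7.5, 20 mM MgCl2). EDTA stop; phospho-Ser62 antibody/Eu anti-rabbit and streptavidin-XL665 TR-FRET, 665/620 nm ratio normalised to give IC50.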

[2] = molecular target: T1, CDK2/CycE (Homo sapiens, UniProt P24941); test: CDK2/CycE kinase assay (TR-FRET, 2 mM ATP); assay type: biochemical; details: 2 mM ATP (high ATP); median; read-out: CDK2/CyclinE, 2 mM ATP (high ATP), IC50 (median)
T1 construct: purchased ProQinase GmbH (Freiburg, Germany); host or cells: insect cells (Sf9)
Method in brief: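 GST-tagged human CDK2 and CycE from Sf9 cells, about 10 ng/ml, pre-incubated 15 min at 22 °C with compound in Tris/HCl pH 8.0 buffer. Reaction with 2 mM ATP and 0.75 µM biotinylated peptide for 25 min at 22 °C. Phospho-RB antibody TR-FRET (665/620 nm ratio) read after 1 h; data normalised to no-inhibitor and no-enzyme controls.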

Chain of CDK12/CycK (Q9NYV4 with tags, fused parts or gaps): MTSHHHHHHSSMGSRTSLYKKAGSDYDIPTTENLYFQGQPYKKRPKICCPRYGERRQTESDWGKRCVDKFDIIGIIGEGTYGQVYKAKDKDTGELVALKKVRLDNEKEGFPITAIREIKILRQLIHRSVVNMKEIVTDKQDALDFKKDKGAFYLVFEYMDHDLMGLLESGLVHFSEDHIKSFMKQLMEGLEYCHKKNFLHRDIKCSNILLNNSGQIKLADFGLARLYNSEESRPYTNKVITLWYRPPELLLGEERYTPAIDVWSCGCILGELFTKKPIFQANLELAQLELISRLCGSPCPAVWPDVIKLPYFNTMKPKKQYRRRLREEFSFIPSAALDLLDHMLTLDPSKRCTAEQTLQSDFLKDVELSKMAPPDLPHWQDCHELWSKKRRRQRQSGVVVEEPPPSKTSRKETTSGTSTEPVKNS
Chain of CDK12/CycK (O75909 1-300 partner limits assumed): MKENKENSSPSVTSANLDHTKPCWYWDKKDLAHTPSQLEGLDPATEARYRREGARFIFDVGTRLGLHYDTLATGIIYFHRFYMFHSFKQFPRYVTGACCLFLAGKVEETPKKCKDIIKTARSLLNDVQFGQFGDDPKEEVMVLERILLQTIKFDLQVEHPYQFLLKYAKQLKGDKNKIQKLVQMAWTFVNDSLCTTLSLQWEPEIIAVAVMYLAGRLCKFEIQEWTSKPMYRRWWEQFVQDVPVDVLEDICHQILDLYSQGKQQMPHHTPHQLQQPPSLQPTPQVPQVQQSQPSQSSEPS

SMILES: Brc1cnn2c(NCc3nc4ccccc4[nH]3)nc(N3C[C@H]4CC[C@@H]3CN4)nc12 (single isomer, unassigned) [Example 316, N-[(1H-benzimidazol-2-yl)methyl]-8-bromo-2-{[1R or S-(1R*4R*)]-2,5-diazabicyclo[2.2.2]octan-2-yl}pyrazolo[1,5-a][1,3,5]triazin-4-amine]
- IC50 [1]: 2.92 µM
- IC50 [2]: 0.284 µM

SMILES: C[C@@]1(O)CCN(c2nc(NCc3nc4ccccc4[nH]3)n3ncc(Br)c3n2)C1 (single isomer, unassigned) [Example 281, (3R or S)-1-(4-{[(1H-benzimidazol-2-yl)methyl]amino}-8-bromopyrazolo[1,5-a][1,3,5]triazin-2-yl)-3-methylpyrrolidin-3-ol]
- IC50 [1]: > 16.9 µM
- IC50 [2]: 3.28 µM

SMILES: c1ccc2[nH]c(CNc3nc(N4C[C@@H]5CCCN[C@@H]5C4)nc4c(C5CC5)cnn34)nc2c1 [Example 249, N-[(1H-benzimidazol-2-yl)methyl]-8-cyclopropyl-2-[(4aS,7aS)-octahydro-6H-pyrrolo[3,4-b]pyridin-6-yl]pyrazolo[1,5-a][1,3,5]triazin-4-amine]
- IC50 [1]: > 17 µM
- IC50 [2]: > 20 µM

SMILES: CN1CCN(c2nc(NCc3nc4ccccc4[nH]3)n3ncc(C(F)(F)F)c3n2)CC1 [Example 297, N-[(1H-benzimidazol-2-yl)methyl]-2-(4-methylpiperazin-1-yl)-8-(trifluoromethyl)pyrazolo[1,5-a][1,3,5]triazin-4-amine]
- IC50 [1]: 17.4 µM
- IC50 [2]: 13.3 µM

SMILES: Fc1ccc2[nH]c(CNc3nc(N4CCOCC4)nc4c(C5CCCC5)cnn34)nc2c1F [Example 262, 8-cyclopentyl-N-[(4,5-difluoro-1H-benzimidazol-2-yl)methyl]-2-(morpholin-4-yl)pyrazolo[1,5-a][1,3,5]triazin-4-amine]
- IC50 [1]: > 5.71 µM
- IC50 [2]: > 20 µM

SMILES: Fc1ccc2[nH]c(CNc3nc(N4CCOCC4)nc4c(C5CCOCC5)cnn34)nc2c1F [Example 276, N-[(4,5-difluoro-1H-benzimidazol-2-yl)methyl]-2-(morpholin-4-yl)-8-(oxan-4-yl)pyrazolo[1,5-a][1,3,5]triazin-4-amine]
- IC50 [1]: > 20 µM
- IC50 [2]: > 20 µM

SMILES: CN(CC1CC1)c1nc(NCc2nc3ccccc3[nH]2)n2ncc(Br)c2n1 [Example 287, N^4-[(1H-benzimidazol-2-yl)methyl]-8-bromo-N^2-(cyclopropylmethyl)-N^2-methylpyrazolo[1,5-a][1,3,5]triazine-2,4-diamine]
- IC50 [1]: 10.7 µM
- IC50 [2]: 9.48 µM

SMILES: FC(F)(F)Cc1cnn2c(NCc3nc4ccccc4[nH]3)nc(N3CCOCC3)nc12.O=CO [Example 265, formic acid-N-[(1H-benzimidazol-2-yl)methyl]-2-(morpholin-4-yl)-8-(2,2,2-trifluoroethyl)pyrazolo[1,5-a][1,3,5]triazin-4-amine (1/1)]
- IC50 [1]: > 16.7 µM
- IC50 [2]: > 20 µM

SMILES: OCC1CN(c2nc(NCc3nc4ccccc4[nH]3)n3ncc(Br)c3n2)C1 [Example 304, [1-(4-{[(1H-benzimidazol-2-yl)methyl]amino}-8-bromopyrazolo[1,5-a][1,3,5]triazin-2-yl)azetidin-3-yl]methanol]
- IC50 [1]: 12.5 µM
- IC50 [2]: 8.43 µM

SMILES: CNC1CCN(c2nc(NCc3nc4ccccc4[nH]3)n3ncc(Br)c3n2)CC1 [Example 272, N-[(1H-benzimidazol-2-yl)methyl]-8-bromo-2-[4-(methylamino)piperidin-1-yl]pyrazolo[1,5-a][1,3,5]triazin-4-amine]
- IC50 [1]: > 20 µM
- IC50 [2]: 16.2 µM

SMILES: Brc1cnn2c(NCc3nnc(-c4ccccc4)[nH]3)nc(N3CCOCC3)nc12 [Example 24, 8-bromo-2-(morpholin-4-yl)-N-[(5-phenyl-4H-1,2,4-triazol-3-yl)methyl]pyrazolo[1,5-a][1,3,5]triazin-4-amine]
- IC50 [1]: 4.39 µM
- IC50 [2]: 2.32 µM

SMILES: Fc1ccc2[nH]c(CNc3nc(N4CCOCC4)nc4c(C5CC5(F)F)cnn34)nc2c1 (racemic) [Example 286, 8-[(1RS)-2,2-difluorocyclopropyl]-N-[(5-fluoro-1H-benzimidazol-2-yl)methyl]-2-(morpholin-4-yl)pyrazolo[1,5-a][1,3,5]triazin-4-amine]
- IC50 [1]: 11.3 µM
- IC50 [2]: > 20 µM

SMILES: COc1ccc2[nH]c(CNc3nc(N4CCOCC4)nc4c(C(F)(F)F)cnn34)nc2c1 [Example 257, N-[(5-methoxy-1H-benzimidazol-2-yl)methyl]-2-(morpholin-4-yl)-8-(trifluoromethyl)pyrazolo[1,5-a][1,3,5]triazin-4-amine]
- IC50 [1]: 0.117 µM
- IC50 [2]: 16.1 µM

SMILES: Fc1ccc2[nH]c(CNc3nc(N4CCOCC4)nc4c(CC(F)(F)F)cnn34)nc2c1 [Example 308, N-[(5-fluoro-1H-benzimidazol-2-yl)methyl]-2-(morpholin-4-yl)-8-(2,2,2-trifluoroethyl)pyrazolo[1,5-a][1,3,5]triazin-4-amine]
- IC50 [1]: 6.4 µM
- IC50 [2]: > 20 µM

SMILES: c1ccc2[nH]c(CNc3nc(N4CCNCC4)nc4c(C5CC5)cnn34)nc2c1 [Example 247, N-[(1H-benzimidazol-2-yl)methyl]-8-cyclopropyl-2-(piperazin-1-yl)pyrazolo[1,5-a][1,3,5]triazin-4-amine]
- IC50 [1]: 14.7 µM
- IC50 [2]: > 20 µM

SMILES: Brc1cnn2c(NCc3nc4ccccc4[nH]3)nc(N3CC4CCNC4C3)nc12 (stereo not drawn) [Example 271, 2-(2,3,3a,4,6,6a-hexahydro-1H-pyrrolo[2,3-c]pyrrol-5-yl)-N-(1H-benzimidazol-2-ylmethyl)-8-bromo-pyrazolo[1,5-a][1,3,5]triazin-4-amine]
- IC50 [1]: > 20 µM
- IC50 [2]: 10 µM

SMILES: FC(F)(F)Cc1cnn2c(NCc3nc4cc(Cl)ccc4[nH]3)nc(N3CCOCC3)nc12 [Example 299, N-[(5-chloro-1H-benzimidazol-2-yl)methyl]-2-(morpholin-4-yl)-8-(2,2,2-trifluoroethyl)pyrazolo[1,5-a][1,3,5]triazin-4-amine]
- IC50 [1]: 6.39 µM
- IC50 [2]: > 20 µM

SMILES: CN(CC(C)(C)O)c1nc(NCc2nc3cc(Cl)c(Cl)cc3[nH]2)n2ncc(C3CC3)c2n1 [Example 306, 1-[(8-cyclopropyl-4-{[(5,6-dichloro-1H-benzimidazol-2-yl)methyl]amino}pyrazolo[1,5-a][1,3,5]triazin-2-yl)(methyl)amino]-2-methylpropan-2-ol]
- IC50 [1]: 1.85 µM
- IC50 [2]: > 20 µM

SMILES: Brc1cnn2c(NCc3nc4ccncc4[nH]3)nc(N3CCOCC3)nc12 [Example 22, 8-bromo-N-[(3H-imidazo[4,5-c]pyridin-2-yl)methyl]-2-(morpholin-4-yl)pyrazolo[1,5-a][1,3,5]triazin-4-amine]
- IC50 [1]: 4 µM
- IC50 [2]: 15.5 µM

SMILES: N[C@H]1CN(c2nc(NCc3nc4ccccc4[nH]3)n3ncc(Br)c3n2)CC12CC2 [Example 259, 2-[(7R)-7-amino-5-azaspiro[2.4]heptan-5-yl]-N-[(1H-benzimidazol-2-yl)methyl]-8-bromopyrazolo[1,5-a][1,3,5]triazin-4-amine]
- IC50 [1]: 2.59 µM
- IC50 [2]: 1.4 µM

SMILES: Fc1ccc2[nH]c(CNc3nc(N4CCOCC4)nc4c(CC(F)(F)F)cnn34)nc2c1F [Example 268, N-[(4,5-difluoro-1H-benzimidazol-2-yl)methyl]-2-(morpholin-4-yl)-8-(2,2,2-trifluoroethyl)pyrazolo[1,5-a][1,3,5]triazin-4-amine]
- IC50 [1]: 2.13 µM
- IC50 [2]: > 20 µM
